In PubChem BioAssay (NCI) one finds GI50 and TGI data, which are given here for nine molecules.

Test systems include SNB-75 CNS; HOP-92 NSCLC; HS 578T breast; COLO 205 colon; UO-31 renal; HT29 colon; BT-549 breast; EKVX NSCLC; IGROV1 ovarian; CAKI-1 renal.
Experiment in all cases: growth of human tumour cells (NCI), 48 h

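Five concentrations, 48 hours, 96-well plates. The concentration for 50% growth inhibition is given as GI50. Definition used: TGI = concentration required for complete inhibition of growth.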

For `CC[n+]1c(/C=C/C=C2\N(C)c3ccccc3C2(C)C)sc2ccccc21`, the GI50 is 3.7 µM with SNB-75 CNS; 3.54 µM in the assay with HOP-92 NSCLC; 5.63 µM with HS 578T breast; 4.47 µM with COLO 205 colon; 3.55 µM with UO-31 renal; 4.74 µM in the assay on HT29 colon. In addition, the GI50 in the assay on BT-549 breast was 4.3 µM; with EKVX NSCLC, 4.39 µM; with IGROV1 ovarian, 4.68 µM. In addition, the TGI in the assay with SNB-75 CNS is 7.5 µM; in the assay on HOP-92 NSCLC, 10.8 µM; with HS 578T breast, 20.1 µM; with COLO 205 colon it was 9.13 µM; with UO-31 renal, 7.26 µM; in the assay with HT29 colon it was 9.74 µM. In addition, the TGI with BT-549 breast came out at 8.6 µM; with EKVX NSCLC, 12.8 µM; in the assay with IGROV1 ovarian, 10.7 µM.

For the molecule `CN1CSC(=S)N(Cc2ccccc2)C1`, the GI50 was 5.81 µM with SNB-75 CNS; 11.4 µM with HS 578T breast; 15 µM with COLO 205 colon; 7.93 µM with UO-31 renal; 3.36 µM in the assay with HT29 colon; 17.1 µM in the assay on BT-549 breast. Moreover, the GI50 with CAKI-1 renal is 34.6 µM; in the assay with EKVX NSCLC, 30.3 µM; with IGROV1 ovarian, 10.3 µM. The TGI in the assay with SNB-75 CNS turned out to be 65.9 µM; in the assay on HS 578T breast, 45.7 µM; with COLO 205 colon, 32.3 µM; with UO-31 renal it was 21.5 µM; in the assay with HT29 colon, 11.6 µM; in the assay with BT-549 breast it was 70.1 µM. For the same molecule, the TGI in the assay with CAKI-1 renal is above 100 µM; with EKVX NSCLC, above 100 µM; with IGROV1 ovarian it was 27.5 µM.

For `Cn1cc(C2=C(c3cn(CCCCCSC(=N)N)c4ccccc34)C(=O)NC2=O)c2ccccc21`, the GI50 in the assay on SNB-75 CNS was 1.01 µM; with HOP-92 NSCLC, 3.27 µM; in the assay with HS 578T breast, 2.24 µM; in the assay with COLO 205 colon it was 1.24 µM; in the assay on UO-31 renal, 3.62 µM; in the assay with HT29 colon, 1.11 µM. The GI50 in the assay with BT-549 breast is 3.65 µM; in the assay on CAKI-1 renal it was 4.03 µM; with IGROV1 ovarian, 3.51 µM. The TGI was 4.36 µM with SNB-75 CNS; 7.21 µM in the assay on HOP-92 NSCLC; 11.1 µM in the assay with HS 578T breast; 4.68 µM in the assay on COLO 205 colon; 7.29 µM in the assay with UO-31 renal; 4.03 µM in the assay with HT29 colon. Besides, the TGI in the assay with BT-549 breast was 7.12 µM; in the assay on CAKI-1 renal, 7.94 µM; in the assay with IGROV1 ovarian, 7.93 µM.

On to `COc1cc2c3c(n(C)c(=O)c2cc1OC)-c1ccc(C#N)cc1C3=O`, for which the GI50 with HOP-92 NSCLC, in the assay with HS 578T breast, in the assay on COLO 205 colon, in the assay on UO-31 renal, in the assay on HT29 colon and with BT-549 breast was above 100 µM throughout. For the same molecule, the GI50 was above 100 µM with CAKI-1 renal, above 100 µM with EKVX NSCLC and 30.5 µM in the assay with IGROV1 ovarian. Besides, the TGI with HOP-92 NSCLC, with HS 578T breast, with COLO 205 colon, with UO-31 renal, with HT29 colon and in the assay on BT-549 breast was above 100 µM throughout. Further, the TGI with CAKI-1 renal, with EKVX NSCLC and in the assay with IGROV1 ovarian was above 100 µM throughout.

As for `COC(=O)C=Cc1ccc2nncnc2c1` (mixture of isomers), the TGI with SNB-75 CNS was 55.1 µM; in the assay on HS 578T breast, above 100 µM; in the assay with COLO 205 colon, above 100 µM; in the assay with UO-31 renal, above 100 µM; with HT29 colon it was above 100 µM; in the assay on BT-549 breast it was above 100 µM. The TGI in the assay on CAKI-1 renal, in the assay on EKVX NSCLC and in the assay on IGROV1 ovarian was above 100 µM in each case.

For the molecule `COc1ccc(/C(C#N)=C2C=C/C(=N/O)c3ccccc3\2)cc1`, the GI50 was 0.259 µM with SNB-75 CNS; 0.39 µM in the assay with HOP-92 NSCLC; 0.258 µM in the assay with HS 578T breast; 1.34 µM in the assay on COLO 205 colon; 0.593 µM with UO-31 renal; 0.705 µM in the assay on HT29 colon. Also, the GI50 in the assay on BT-549 breast was 0.333 µM; with CAKI-1 renal it was 0.608 µM; with IGROV1 ovarian it was 0.523 µM. Moreover, the TGI stood at 11.5 µM with SNB-75 CNS; 6.96 µM in the assay with HOP-92 NSCLC; 6.33 µM in the assay on HS 578T breast; 3.52 µM in the assay with COLO 205 colon; 15.3 µM with UO-31 renal; 4.53 µM in the assay with HT29 colon. The values for the TGI with BT-549 breast, in the assay with CAKI-1 renal and in the assay on IGROV1 ovarian were 8.18 µM, 26.1 µM and 17.6 µM, respectively.

In the case of `NC(=S)c1c(N)n(C2OC(CO)C(O)C2O)c2ncnc(N)c12` (centres undefined), the GI50 is 0.885 µM with SNB-75 CNS; 0.302 µM in the assay with HOP-92 NSCLC; 0.223 µM in the assay with HS 578T breast; 0.186 µM in the assay with COLO 205 colon; 0.27 µM in the assay with UO-31 renal; 0.147 µM in the assay with HT29 colon. Also, the GI50 with BT-549 breast is 0.17 µM; with CAKI-1 renal, 0.515 µM; in the assay on EKVX NSCLC, 0.345 µM. The TGI with SNB-75 CNS is 4.17 µM; in the assay on HOP-92 NSCLC, 3.43 µM; in the assay on HS 578T breast, 0.648 µM; with COLO 205 colon it was 0.567 µM; in the assay with UO-31 renal it was 2.33 µM; with HT29 colon, above 40.9 µM. Further, the results for the TGI in the assay on BT-549 breast, in the assay with CAKI-1 renal and in the assay on EKVX NSCLC were 0.475 µM, 5.42 µM and 11 µM, respectively.

On to `Cc1ccc(NC(=O)C(=O)CC(=O)c2sc(Nc3c(C)cccc3C)nc2C)cc1C`, for which the TGI in the assay on HOP-92 NSCLC, in the assay with HS 578T breast, in the assay on COLO 205 colon, in the assay with UO-31 renal, with HT29 colon and with BT-549 breast was above 100 µM throughout. Moreover, the TGI in the assay on CAKI-1 renal, in the assay with EKVX NSCLC and with IGROV1 ovarian was above 100 µM throughout.

`O=C1NC(=NCCCc2ccccc2)S/C1=C\c1ccc2ncccc2c1`: the GI50 with SNB-75 CNS is 2.3 µM; in the assay with HOP-92 NSCLC, 4.22 µM; in the assay on HS 578T breast, 5.11 µM; in the assay with COLO 205 colon it was 6.98 µM; in the assay with UO-31 renal it was 4.06 µM; in the assay on HT29 colon, 6.55 µM. Further, the GI50 in the assay on BT-549 breast is 4.58 µM; with CAKI-1 renal it was 5.09 µM; with IGROV1 ovarian, 5.49 µM. The TGI in the assay on SNB-75 CNS was 6.69 µM; in the assay on HOP-92 NSCLC, 13.4 µM; in the assay with HS 578T breast, 16 µM; in the assay on COLO 205 colon, above 20.7 µM; in the assay with UO-31 renal it was 11.9 µM; with HT29 colon, above 21.4 µM. Further, the TGI with BT-549 breast was 10.4 µM; in the assay on CAKI-1 renal, above 18.2 µM; with IGROV1 ovarian, 14.1 µM.
